The assay concerns the target T1, Bcl-2 protein (Recombinant Human Bcl-2 Protein) (Homo sapiens, UniProt P10415).
T1 construct: purchased Novus NBP2-34889
The assay can be described thus: Binding evaluation of mixture library compounds to Bcl-2 using AS-MS (affinity selection mass spectrometry). To be noted: for ASMS ratio (%) n = 1 / ASMS ratio (%) n = 2: ASMS Ratio(%)=(A−C)/B×100; for ASMS ratio (%) n = 1: replicate n = 1; for ASMS ratio (%) n = 2: replicate n = 2. A digest of the protocol:
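Bcl-2 binding is scored from LC/MS signal retained with protein through gel-filtration spin columns, normalised to unfiltered and protein-free controls. Incubation: 20 μM protein, […] per compound, 1 h, 23° C.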

[1] abbreviates: AS-MS on the mixture of 1200 library compounds.
The mark [2] stands for this setting: AS-MS, mixture of 1200 compounds, Bcl-2.

T1 sequence (P10415 whole entry): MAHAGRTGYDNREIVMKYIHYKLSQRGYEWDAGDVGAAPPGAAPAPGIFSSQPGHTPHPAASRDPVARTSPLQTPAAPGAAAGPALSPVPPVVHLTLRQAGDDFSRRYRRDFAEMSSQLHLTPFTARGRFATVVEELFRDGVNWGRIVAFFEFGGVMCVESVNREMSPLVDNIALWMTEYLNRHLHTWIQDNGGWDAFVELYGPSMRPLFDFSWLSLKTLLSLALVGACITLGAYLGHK

In the case of `CCOc1cncc(C#Cc2cncc(C(=O)N3CCN(c4ccc(C(=O)Nc5ccc(OC)cc5)cc4)CC3)c2)c1` [B1O032-01, 4-[4-[5-[2-(5-Ethoxypyridin-3-yl)ethynyl]pyridine-3-carbonyl]piperazin-1-yl]-N-(4-methoxyphenyl)benzamide], under setting [1], the “ASMS ratio (%) n = 1” value came to 4.5% and the “ASMS ratio (%) n = 2” value is 0.9%.

For `CCOc1cccc(C#Cc2ccccc2CN2CCN(c3ccc(C(=O)Nc4ccc(OC)cc4)cc3)CC2)c1` [B1O069-01, 4-[4-[[2-[2-(3-Ethoxyphenyl)ethynyl]phenyl]methyl]piperazin-1-yl]-N-(4-methoxyphenyl)benzamide], under setting [1], the “ASMS ratio (%) n = 1” value is reported as 6.2% and the “ASMS ratio (%) n = 2” value was −2.4%.

With `CCOc1cccc(-c2ccc(C(=O)N3CCN(c4ccc(C(=O)N(CC)CC)nn4)CC3)c3ccccc23)c1` [B4J013-01, 6-[4-[4-(3-Ethoxyphenyl)naphthalene-1-carbonyl]piperazin-1-yl]-N,N-diethylpyridazine-3-carboxamide], under setting [1], the “ASMS ratio (%) n = 1” value amounted to 2.0% and the “ASMS ratio (%) n = 2” value came to 3.7%.

`CCCNC(=O)c1ccc(N2CCN(Cc3cc(OC(F)(F)F)cc(-c4cccc(OCC)c4)c3)CC2)nn1` [B1M033-01]: under setting [2], the “ASMS ratio (%) n = 1” value came out at 0.3% and the “ASMS ratio (%) n = 2” value was 0.0%.

For `CCOc1cccc(-c2cc(C(=O)N3CCN(c4ccc(C(=O)N(C)CC56CC7CC(CC(C7)C5)C6)cc4)CC3)cc(C(F)(F)F)c2)c1` [B3A039-01, N-(1-Adamantylmethyl)-4-[4-[3-(3-ethoxyphenyl)-5-(trifluoromethyl)benzoyl]piperazin-1-yl]-N-methylbenzamide], under setting [1], the “ASMS ratio (%) n = 1” value was 3.8% and the “ASMS ratio (%) n = 2” value is on record as 0.0%.

With `CCOc1cncc(-c2ccc(C(=O)N3CCN(c4ccc(C(=O)NS(=O)(=O)C(C)(C)C)cc4)CC3)cc2F)c1` [B2L028-01, N-tert-Butylsulfonyl-4-[4-[4-(5-ethoxypyridin-3-yl)-3-fluorobenzoyl]piperazin-1-yl]benzamide], the “ASMS ratio (%)” value worked out at 0.0% (n = 1) and 0.0% (n = 2).

Turning to `CCOc1cncc(-c2ccc(C(C)N3CCN(c4ccc(C(=O)NCC(F)(F)F)cc4)CC3)cc2)c1` (stereo not shown) [B1K098-01, 4-[4-[1-[4-(5-Ethoxypyridin-3-yl)phenyl]ethyl]piperazin-1-yl]-N-(2,2,2-trifluoroethyl)benzamide], under setting [2], the “ASMS ratio (%) n = 1” value is −1.1% and the “ASMS ratio (%) n = 2” value was −2.4%.

Consider `CCOc1cccc(-c2csc(CN3CCN(c4ccc(C(=O)N(C)CC56CC7CC(CC(C7)C5)C6)nn4)CC3)c2)c1` [B3A093-01, N-(1-Adamantylmethyl)-6-[4-[[4-(3-ethoxyphenyl)thiophen-2-yl]methyl]piperazin-1-yl]-N-methylpyridazine-3-carboxamide], for which, under setting [1], the “ASMS ratio (%) n = 1” value is −3.8% and the “ASMS ratio (%) n = 2” value was 0.0%.

Take `CCOc1cccc(C#Cc2ccccc2CN2CCN(c3ccc(C(=O)NCC45CC6CC(CC(C6)C4)C5)nn3)CC2)c1` [B1A095-01, N-(1-Adamantylmethyl)-6-[4-[[2-[2-(3-ethoxyphenyl)ethynyl]phenyl]methyl]piperazin-1-yl]pyridazine-3-carboxamide]: under setting [2], the “ASMS ratio (%) n = 1” value is listed as 0.3% and the “ASMS ratio (%) n = 2” value was −17.1%.

In the case of `CCOc1cncc(-c2ccc(CN3CCN(c4ccc(C(=O)NCC56CC7CC(CC(C7)C5)C6)cc4)CC3)cc2C)c1` [B1A048-01, N-(1-Adamantylmethyl)-4-[4-[[4-(5-ethoxypyridin-3-yl)-3-methylphenyl]methyl]piperazin-1-yl]benzamide], under setting [2], the “ASMS ratio (%) n = 1” value was 1.5% and the “ASMS ratio (%) n = 2” value came to 3.6%.

On to `CCOc1cccc(-c2cnn(-c3cc(C(=O)N4CCN(c5ccc(C(=O)Nc6ccc(OC)cc6)nn5)CC4)cc(C(F)(F)F)c3)c2)c1` [B1O021-01, 6-[4-[3-[4-(3-Ethoxyphenyl)pyrazol-1-yl]-5-(trifluoromethyl)benzoyl]piperazin-1-yl]-N-(4-methoxyphenyl)pyridazine-3-carboxamide], for which, under setting [1], the “ASMS ratio (%) n = 1” value was determined as 2.9% and the “ASMS ratio (%) n = 2” value was −1.2%.

For the origin of these results see patent publication US20240132431A1, “METHOD FOR ALKYLATING ACIDIC FUNCTIONAL GROUP” (Chugai Seiyaku Kabushiki Kaisha, priority 2021, published 2024).
